Source: patent publication US8598344B2, “CDKI pathway inhibitors and uses thereof” (Senex Biotechnology, priority 2009, dated 2013)

Key:
Assay in all cases: KinomeScan competition binding assay
[1] = target: T1, BTK (Homo sapiens, UniProt Q06187); conditions: 10 μM compound
T1 construct: purchased KinomeScan, a division of Ambit Biosciences
Outline: (§1)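 Test compound competes with an immobilized, ATP-site-directed ligand for binding to DNA-tagged kinase. Kinase remaining on the ligand is quantified by qPCR of the DNA tag. Values are reported as percent of control binding or as binding constants (Kd).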

[2] = target: T2, CDK19 (Homo sapiens, UniProt Q9BWU1); conditions: for POC ligand binding, CDK19: 10 μM compound; for Kd: read-out: CDK19 inhibition (Kd); for inhibition of CDK19: 10 μM
T2 construct: purchased KinomeScan, a division of Ambit Biosciences
Outline: as §1

[3] = target: T3, HIPK3 (Homo sapiens, UniProt Q9H422); conditions: 10 μM compound
T3 construct: purchased KinomeScan, a division of Ambit Biosciences
Outline: as §1

[4] = target: T4, IRAK1 (Homo sapiens, UniProt P51617); conditions: 10 μM compound
T4 construct: purchased KinomeScan, a division of Ambit Biosciences
Outline: as §1

[5] = target: T5, YSK4 (Homo sapiens, UniProt Q56UN5); conditions: 10 μM compound
T5 construct: purchased KinomeScan, a division of Ambit Biosciences
T5 sequence (Q56UN5 1-1328): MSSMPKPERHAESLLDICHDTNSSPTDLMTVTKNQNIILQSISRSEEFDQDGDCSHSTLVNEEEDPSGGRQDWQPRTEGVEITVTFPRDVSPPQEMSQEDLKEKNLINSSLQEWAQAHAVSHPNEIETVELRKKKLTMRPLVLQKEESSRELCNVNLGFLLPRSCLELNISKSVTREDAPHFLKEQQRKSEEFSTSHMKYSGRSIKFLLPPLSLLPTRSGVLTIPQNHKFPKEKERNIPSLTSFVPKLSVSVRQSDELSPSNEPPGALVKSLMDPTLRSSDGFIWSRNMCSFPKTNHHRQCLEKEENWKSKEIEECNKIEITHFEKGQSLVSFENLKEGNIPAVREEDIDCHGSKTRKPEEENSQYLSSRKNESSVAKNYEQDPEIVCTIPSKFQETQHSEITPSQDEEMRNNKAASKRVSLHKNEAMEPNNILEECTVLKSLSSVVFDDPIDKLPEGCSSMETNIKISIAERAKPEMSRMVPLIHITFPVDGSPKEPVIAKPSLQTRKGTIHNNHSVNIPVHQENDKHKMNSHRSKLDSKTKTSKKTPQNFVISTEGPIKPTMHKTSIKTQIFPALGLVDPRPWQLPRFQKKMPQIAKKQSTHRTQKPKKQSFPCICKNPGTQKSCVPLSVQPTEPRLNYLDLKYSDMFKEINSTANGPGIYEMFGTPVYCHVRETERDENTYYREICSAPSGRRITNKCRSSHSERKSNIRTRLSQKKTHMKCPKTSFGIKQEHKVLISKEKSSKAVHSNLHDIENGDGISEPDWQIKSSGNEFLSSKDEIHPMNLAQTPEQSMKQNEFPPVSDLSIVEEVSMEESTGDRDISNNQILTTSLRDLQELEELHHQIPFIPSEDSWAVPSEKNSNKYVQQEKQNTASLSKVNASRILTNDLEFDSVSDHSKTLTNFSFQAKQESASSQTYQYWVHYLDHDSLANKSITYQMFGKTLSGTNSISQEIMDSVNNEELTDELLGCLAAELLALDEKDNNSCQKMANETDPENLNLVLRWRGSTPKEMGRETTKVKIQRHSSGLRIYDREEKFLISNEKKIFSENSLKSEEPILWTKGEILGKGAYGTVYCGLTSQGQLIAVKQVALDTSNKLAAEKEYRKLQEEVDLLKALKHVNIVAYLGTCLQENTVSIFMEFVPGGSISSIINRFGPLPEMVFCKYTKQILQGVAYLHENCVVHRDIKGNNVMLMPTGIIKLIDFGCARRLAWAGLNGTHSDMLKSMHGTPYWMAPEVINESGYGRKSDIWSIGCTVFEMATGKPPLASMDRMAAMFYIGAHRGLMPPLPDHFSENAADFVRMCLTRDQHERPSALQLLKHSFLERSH
Outline: as §1

T4 sequence (P51617 whole entry): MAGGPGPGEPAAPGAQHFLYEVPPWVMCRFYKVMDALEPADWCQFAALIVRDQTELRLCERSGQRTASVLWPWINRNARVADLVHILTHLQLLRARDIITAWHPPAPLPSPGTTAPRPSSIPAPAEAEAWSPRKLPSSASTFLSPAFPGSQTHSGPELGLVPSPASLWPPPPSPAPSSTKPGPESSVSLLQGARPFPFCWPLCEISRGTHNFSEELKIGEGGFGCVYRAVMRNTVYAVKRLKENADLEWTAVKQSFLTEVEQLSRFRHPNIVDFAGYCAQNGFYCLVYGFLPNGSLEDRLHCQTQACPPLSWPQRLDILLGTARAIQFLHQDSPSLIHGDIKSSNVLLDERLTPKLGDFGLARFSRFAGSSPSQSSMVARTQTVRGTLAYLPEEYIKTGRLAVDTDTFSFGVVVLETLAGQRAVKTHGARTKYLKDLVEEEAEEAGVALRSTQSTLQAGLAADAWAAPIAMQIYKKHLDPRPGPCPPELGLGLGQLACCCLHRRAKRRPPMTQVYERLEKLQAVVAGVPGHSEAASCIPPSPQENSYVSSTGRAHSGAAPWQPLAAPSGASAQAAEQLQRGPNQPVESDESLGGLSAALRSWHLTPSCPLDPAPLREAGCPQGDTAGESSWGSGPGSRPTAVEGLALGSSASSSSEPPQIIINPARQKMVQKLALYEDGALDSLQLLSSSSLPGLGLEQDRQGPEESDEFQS
T3 sequence (Q9H422 whole entry): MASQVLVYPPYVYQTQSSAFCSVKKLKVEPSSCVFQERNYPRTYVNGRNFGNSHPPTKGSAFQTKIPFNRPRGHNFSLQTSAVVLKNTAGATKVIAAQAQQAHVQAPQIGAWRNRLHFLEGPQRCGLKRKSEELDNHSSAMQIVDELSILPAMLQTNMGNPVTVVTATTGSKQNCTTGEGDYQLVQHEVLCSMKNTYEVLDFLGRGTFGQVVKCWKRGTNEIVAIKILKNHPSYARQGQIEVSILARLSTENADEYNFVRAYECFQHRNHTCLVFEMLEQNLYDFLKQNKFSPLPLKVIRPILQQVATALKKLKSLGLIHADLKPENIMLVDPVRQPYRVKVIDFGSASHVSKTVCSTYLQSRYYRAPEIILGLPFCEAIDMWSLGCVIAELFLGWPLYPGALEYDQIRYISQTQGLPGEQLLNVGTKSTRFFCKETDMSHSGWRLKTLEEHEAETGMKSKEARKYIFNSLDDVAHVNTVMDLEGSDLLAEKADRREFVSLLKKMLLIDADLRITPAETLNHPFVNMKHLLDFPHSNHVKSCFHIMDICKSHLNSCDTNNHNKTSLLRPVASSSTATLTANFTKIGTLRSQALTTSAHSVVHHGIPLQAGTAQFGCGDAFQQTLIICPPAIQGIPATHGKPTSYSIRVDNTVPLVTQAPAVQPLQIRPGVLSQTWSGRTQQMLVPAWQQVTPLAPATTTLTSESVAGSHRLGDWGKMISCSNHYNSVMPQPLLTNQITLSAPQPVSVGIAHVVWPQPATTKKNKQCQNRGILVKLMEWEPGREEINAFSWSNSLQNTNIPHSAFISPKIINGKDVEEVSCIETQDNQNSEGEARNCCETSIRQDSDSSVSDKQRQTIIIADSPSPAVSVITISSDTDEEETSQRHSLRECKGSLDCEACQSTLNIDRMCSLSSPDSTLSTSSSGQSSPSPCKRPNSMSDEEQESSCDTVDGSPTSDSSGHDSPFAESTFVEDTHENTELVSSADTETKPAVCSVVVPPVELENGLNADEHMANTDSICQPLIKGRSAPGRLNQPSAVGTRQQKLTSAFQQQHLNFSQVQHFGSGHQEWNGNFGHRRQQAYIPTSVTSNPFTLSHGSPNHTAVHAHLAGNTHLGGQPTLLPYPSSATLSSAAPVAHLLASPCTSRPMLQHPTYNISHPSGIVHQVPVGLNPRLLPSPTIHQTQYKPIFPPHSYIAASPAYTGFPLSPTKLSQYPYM
T1 sequence (Q06187 whole entry): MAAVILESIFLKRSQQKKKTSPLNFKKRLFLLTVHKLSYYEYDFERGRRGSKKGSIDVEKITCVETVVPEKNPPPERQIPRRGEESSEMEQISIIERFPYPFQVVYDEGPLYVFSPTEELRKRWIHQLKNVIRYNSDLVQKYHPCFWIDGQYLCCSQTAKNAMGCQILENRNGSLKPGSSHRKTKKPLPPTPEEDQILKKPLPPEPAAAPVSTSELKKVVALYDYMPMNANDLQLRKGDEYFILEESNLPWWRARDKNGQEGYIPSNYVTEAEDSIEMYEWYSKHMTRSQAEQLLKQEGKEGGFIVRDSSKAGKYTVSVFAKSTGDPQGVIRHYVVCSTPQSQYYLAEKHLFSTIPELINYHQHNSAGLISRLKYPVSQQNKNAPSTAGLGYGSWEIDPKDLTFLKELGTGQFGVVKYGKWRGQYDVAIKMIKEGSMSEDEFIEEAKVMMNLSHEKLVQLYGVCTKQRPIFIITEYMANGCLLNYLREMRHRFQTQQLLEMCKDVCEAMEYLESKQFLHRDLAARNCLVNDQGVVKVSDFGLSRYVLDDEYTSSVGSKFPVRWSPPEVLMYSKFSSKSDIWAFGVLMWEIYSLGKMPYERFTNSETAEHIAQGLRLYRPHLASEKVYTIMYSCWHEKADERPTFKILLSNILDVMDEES
T2 sequence (Q9BWU1 whole entry): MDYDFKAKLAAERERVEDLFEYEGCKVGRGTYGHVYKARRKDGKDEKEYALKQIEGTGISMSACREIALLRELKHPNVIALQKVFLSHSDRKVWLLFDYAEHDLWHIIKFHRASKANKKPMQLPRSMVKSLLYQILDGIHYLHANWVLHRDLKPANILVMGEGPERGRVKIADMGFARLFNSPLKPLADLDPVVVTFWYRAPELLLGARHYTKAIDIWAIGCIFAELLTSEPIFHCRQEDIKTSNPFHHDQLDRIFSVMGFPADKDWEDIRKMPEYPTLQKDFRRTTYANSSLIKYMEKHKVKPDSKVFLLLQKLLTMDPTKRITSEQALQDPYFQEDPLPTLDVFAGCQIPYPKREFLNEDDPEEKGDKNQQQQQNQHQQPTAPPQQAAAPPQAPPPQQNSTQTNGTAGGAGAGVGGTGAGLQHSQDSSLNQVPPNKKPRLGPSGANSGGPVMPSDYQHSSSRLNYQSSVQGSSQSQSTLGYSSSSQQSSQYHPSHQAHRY

Compound	POC ligand binding, BTK [1]	POC ligand binding, CDK19 [2]	POC ligand binding, HIPK3 [3]	POC ligand binding, IRAK1 [4]	POC ligand binding, YSK4 [5]	Kd [2]	inhibition of CDK19 [2]	POC ligand binding, CDK19 ([2]; 10 µM)	POC ligand binding, HIPK3 ([3]; 10 µM)	POC ligand binding, IRAK1 ([4]; 10 µM)	POC ligand binding, YSK4 ([5]; 10 µM)
COc1ccc2ncnc(NCCc3ccccc3)c2c1 [compound 44]	100 POC	9.2 POC	53 POC	64 POC	39 POC	–	–	–	–	–	–
N#Cc1ccc2ncnc(NCc3ccc(Cl)cc3)c2c1 [compound 20]	100 POC	0 POC	28 POC	26 POC	31 POC	99 nM	–	–	–	–	–
N#Cc1ccc2ncnc(NCCc3ccccc3)c2c1 [compound 1]	15 POC	0.05 POC	18 POC	8.2 POC	5.4 POC	310 nM	> 99%	–	–	–	–
CCCNc1ncnc2ccc(N3CCOCC3)cc12 [compound 46]	81 POC	100 POC	34 POC	81 POC	91 POC	–	–	–	–	–	–
N#Cc1ccc2ncnc(NCc3ccc4ccccc4c3)c2c1 [compound 43]	100 POC	–	–	–	–	190 nM	–	0.25 POC	42 POC	7.6 POC	29 POC
CC(C)CNc1ncnc2ccc(C(F)(F)F)cc12 [compound 45]	100 POC	21 POC	28 POC	25 POC	41 POC	–	–	–	–	–	–
N#Cc1ccc2ncnc(NCc3ccc4ccccc4c3)c2c1 [compound 14]	100 POC	–	–	–	–	1100 nM	–	0.1 POC	35 POC	35 POC	21 POC
N#Cc1ccc2ncnc(NCCc3ccc4ccccc4c3)c2c1 [compound 26]	100 POC	5.6 POC	66 POC	89 POC	44 POC	160 nM	94.6%	–	–	–	–
